For one test, the target named is BRM (Homo sapiens, UniProt P51531). Kind of test: ATPase catalytic activity assay of BRM (ADP-Glo). It is filed as biochemical. To be noted: for IC50: read-out: BRM IC50 (μM)*. The method, boiled down: (§1)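 ATPase activity of BRG-1 or BRM was read by ADP-Glo. Residual ATP was depleted (40 min, room temperature), then ADP was converted to ATP (60 min, room temperature) and measured as luciferase luminescence.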
Background: In ADP-Glo the light output rises with the ADP produced.

For a further test, the target named is BRG-1 (Homo sapiens, UniProt P51532). Put plainly: ATPase catalytic activity assay of BRG-1 (ADP-Glo). It is filed as biochemical. To be noted: ATPase catalytic activity, ADP-Glo; for IC50: read-out: BRG1 IC50 (μM)*; for Emax: read-out: BRG1 Max % Inhibition. The method, boiled down: as §1
Chain of BRG-1 (P51532 whole entry): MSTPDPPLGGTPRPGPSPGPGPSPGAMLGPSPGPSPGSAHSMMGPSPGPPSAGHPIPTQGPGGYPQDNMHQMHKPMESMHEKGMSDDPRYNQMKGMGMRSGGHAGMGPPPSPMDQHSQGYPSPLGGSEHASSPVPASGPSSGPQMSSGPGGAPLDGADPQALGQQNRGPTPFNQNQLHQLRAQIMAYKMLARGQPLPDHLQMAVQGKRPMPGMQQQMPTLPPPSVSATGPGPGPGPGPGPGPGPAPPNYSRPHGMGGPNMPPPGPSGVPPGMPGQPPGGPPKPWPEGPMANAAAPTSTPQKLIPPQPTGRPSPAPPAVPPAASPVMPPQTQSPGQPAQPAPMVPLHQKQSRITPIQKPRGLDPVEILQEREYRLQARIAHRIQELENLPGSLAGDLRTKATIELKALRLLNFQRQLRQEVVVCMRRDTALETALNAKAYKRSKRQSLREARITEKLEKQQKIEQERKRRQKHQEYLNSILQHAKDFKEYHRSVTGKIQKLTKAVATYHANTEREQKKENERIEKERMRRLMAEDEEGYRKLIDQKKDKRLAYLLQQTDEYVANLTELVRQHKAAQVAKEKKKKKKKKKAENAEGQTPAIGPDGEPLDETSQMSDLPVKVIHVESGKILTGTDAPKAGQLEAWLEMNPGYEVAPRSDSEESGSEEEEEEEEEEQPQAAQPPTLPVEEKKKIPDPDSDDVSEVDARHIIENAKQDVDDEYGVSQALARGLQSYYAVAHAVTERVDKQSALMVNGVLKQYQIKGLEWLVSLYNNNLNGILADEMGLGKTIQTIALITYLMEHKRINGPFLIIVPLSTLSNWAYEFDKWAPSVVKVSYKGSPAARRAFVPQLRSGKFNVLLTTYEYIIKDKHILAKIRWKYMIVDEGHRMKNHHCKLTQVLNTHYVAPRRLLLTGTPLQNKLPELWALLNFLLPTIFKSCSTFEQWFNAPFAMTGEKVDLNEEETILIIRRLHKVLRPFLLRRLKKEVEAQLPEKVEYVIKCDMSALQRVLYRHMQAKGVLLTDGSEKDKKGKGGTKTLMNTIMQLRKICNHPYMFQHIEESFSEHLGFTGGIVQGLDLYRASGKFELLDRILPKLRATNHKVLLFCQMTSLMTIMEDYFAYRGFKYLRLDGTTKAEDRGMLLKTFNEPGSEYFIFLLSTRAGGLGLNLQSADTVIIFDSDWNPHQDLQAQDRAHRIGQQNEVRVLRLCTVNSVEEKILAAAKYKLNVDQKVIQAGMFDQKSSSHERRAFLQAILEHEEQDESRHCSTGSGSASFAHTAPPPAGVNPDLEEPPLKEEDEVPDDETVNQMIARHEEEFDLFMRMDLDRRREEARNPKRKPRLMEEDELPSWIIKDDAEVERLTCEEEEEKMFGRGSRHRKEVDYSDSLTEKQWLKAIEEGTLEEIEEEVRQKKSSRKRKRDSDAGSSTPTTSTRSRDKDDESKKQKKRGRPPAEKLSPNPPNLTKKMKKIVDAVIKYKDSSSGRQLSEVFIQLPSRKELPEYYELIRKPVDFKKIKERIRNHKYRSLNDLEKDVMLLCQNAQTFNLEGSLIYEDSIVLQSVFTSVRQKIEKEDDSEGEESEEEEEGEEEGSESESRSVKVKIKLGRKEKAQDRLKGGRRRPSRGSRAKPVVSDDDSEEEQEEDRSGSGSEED

The record followed here is patent US12685735B2 (Foghorn Therapeutics Inc., priority 2020, dated 2026).

Bounds are passed on as bounds.

In general, IC50 refers to the point on the concentration scale where inhibition reaches its midpoint.

Chain of BRM (P51531 whole entry): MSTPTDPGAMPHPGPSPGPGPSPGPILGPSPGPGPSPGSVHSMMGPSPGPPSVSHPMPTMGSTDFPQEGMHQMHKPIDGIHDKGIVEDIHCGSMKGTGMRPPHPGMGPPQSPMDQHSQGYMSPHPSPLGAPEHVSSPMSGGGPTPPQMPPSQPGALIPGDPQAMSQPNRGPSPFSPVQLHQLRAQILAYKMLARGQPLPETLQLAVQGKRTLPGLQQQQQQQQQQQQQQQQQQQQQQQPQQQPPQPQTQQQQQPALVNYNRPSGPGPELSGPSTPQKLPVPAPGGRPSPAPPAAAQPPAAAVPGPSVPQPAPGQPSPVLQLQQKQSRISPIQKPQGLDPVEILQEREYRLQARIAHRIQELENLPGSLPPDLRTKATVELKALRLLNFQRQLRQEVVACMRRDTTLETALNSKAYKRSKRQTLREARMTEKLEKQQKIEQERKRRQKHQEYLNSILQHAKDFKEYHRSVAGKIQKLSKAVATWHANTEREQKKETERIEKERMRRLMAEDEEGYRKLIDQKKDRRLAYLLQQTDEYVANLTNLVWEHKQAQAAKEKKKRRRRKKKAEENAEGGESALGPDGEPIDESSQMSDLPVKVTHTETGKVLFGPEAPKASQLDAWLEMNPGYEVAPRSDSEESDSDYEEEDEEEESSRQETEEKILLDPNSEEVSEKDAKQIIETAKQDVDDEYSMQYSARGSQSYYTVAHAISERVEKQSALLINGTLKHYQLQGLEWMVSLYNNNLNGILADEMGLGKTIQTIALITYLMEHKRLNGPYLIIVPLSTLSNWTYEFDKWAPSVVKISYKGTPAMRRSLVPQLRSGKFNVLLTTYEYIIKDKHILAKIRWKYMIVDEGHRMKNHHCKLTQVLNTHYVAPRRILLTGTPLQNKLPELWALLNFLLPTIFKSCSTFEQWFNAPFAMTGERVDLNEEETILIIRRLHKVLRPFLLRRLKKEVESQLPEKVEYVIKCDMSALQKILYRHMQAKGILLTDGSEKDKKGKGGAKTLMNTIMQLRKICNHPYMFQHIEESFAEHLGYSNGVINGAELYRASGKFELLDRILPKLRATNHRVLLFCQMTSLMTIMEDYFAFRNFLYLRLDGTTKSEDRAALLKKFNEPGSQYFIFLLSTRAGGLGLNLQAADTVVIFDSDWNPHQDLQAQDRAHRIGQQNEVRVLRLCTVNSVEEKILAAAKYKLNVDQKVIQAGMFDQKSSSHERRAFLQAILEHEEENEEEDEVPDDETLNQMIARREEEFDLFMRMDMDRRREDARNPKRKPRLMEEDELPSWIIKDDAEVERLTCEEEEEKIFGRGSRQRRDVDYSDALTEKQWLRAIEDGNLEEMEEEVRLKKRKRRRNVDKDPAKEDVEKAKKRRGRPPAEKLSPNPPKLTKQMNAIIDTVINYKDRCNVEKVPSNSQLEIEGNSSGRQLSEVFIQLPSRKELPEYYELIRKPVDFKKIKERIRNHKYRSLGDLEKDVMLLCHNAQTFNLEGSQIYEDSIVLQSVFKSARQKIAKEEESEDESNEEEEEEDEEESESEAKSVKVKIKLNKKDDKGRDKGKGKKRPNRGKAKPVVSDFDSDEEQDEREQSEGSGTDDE

Take `Cc1cc(-c2cccc(-c3csc(NC(=O)CNC(=O)c4cccc(C(C)(C)CN)c4)n3)c2)ncn1` [Compound 98]: at BRM, the “BRM Max % Inhibition” value is over 95% and the IC50 was 0.1 to 1 µM. On BRG-1, the concentration for half-maximal inhibition (IC50) was in the range of 1 to 5 µM and the Emax is over 70%.

Take `C[C@@H]1CN(c2cccc(-c3csc(NC(=O)CNC(=O)c4cccc(C(C)(C)CN)c4)n3)c2)C[C@H](C)O1` [Compound 99]: at BRM, the “BRM Max % Inhibition” value is on record as over 95% and the 50% inhibitory concentration (IC50) is under 0.1 µM. At BRG-1, the IC50 is 0.1 to 1 µM and the Emax was over 90%.

As to `Cc1nccc(-c2cccc(-c3csc(NC(=O)CNC(=O)c4cccc(C(C)(C)CN)c4)n3)c2)n1` [Compound 100], on BRM, the “BRM Max % Inhibition” value was over 95% and the IC50 is under 0.1 µM. Further, at BRG-1, the “BRG1 Max % Inhibition” value was over 95% and the IC50 was under 0.1 µM.

For the compound `CC1(CN)CCc2ccc(C(=O)NCC(=O)Nc3nc(-c4cccc(-c5ccncc5)c4)cs3)cc21` (stereo not shown) [Compound 101], on BRM, the “BRM Max % Inhibition” value is recorded as over 90% and the IC50 lay in the range of 0.1 to 1 µM. For the same compound, at BRG-1, the IC50 lay in the range of 1 to 5 µM and the Emax was over 70%.

Turning to `CC1(CO)CCc2ccc(C(=O)NCC(=O)Nc3nc(-c4cccc(-c5ccncc5)c4)cs3)cc21` (stereo not shown) [Compound 102], at BRM, the “BRM Max % Inhibition” value is recorded as over 95% and the IC50 is under 0.1 µM. In addition, on BRG-1, the IC50 is 0.1 to 1 µM and the Emax was over 80%.

For the compound `Cn1cc(-c2cccc(-c3csc(NC(=O)CNC(=O)c4cccc(C(C)(C)CO)c4)n3)c2)cn1` [Compound 104], on BRM, the “BRM Max % Inhibition” value is given as over 90% and the IC50 fell in the range of 0.1 to 1 µM. Also, on BRG-1, the IC50 was 1 to 5 µM and the Emax is over 70%.

As for `CC(C)(CO)c1cccc(C(=O)NCC(=O)Nc2nc(-c3cccc(C#N)c3)cs2)c1` [Compound 106], at BRM, the “BRM Max % Inhibition” value was over 80% and the half-inhibitory concentration (IC50) lay within 1 to 5 µM. Besides, at BRG-1, the IC50 lay in the range of 1 to 5 µM and the Emax was over 30%.

For the compound `O=C(CNC(=O)c1ccc2c(c1)C1(CCNC1=O)CC2)Nc1nc(-c2cccc(-c3ccncc3)c2)cs1` (stereo not shown) [Compound 108], at BRM, the “BRM Max % Inhibition” value is recorded as over 95% and the IC50 is 0.1 to 1 µM. At BRG-1, the concentration for half-maximal inhibition (IC50) was in the range of 1 to 5 µM and the Emax was over 80%.

With `C[C@@H](N)C(C)(C)c1cccc(C(=O)NCC(=O)Nc2nc(-c3cccc(-c4ccncc4)c3)cs2)c1` [Compound 109], on BRM, the “BRM Max % Inhibition” value is on record as over 80% and the 50% inhibitory concentration (IC50) was in the range of 1 to 5 µM. Moreover, at BRG-1, the IC50 was in the range of 1 to 5 µM and the Emax was over 50%.

`Cc1cc(-c2cccc(-c3csc(NC(=O)CNC(=O)c4ccc(C)c(S(=O)(=O)C(C)C)c4)n3)n2)ncn1` [Compound 110, 3-isopropylsulfonyl-4-methyl-N-[2-[[4-[6-(6-methylpyrimidin-4-yl)-2-pyridyl]thiazol-2-yl]amino]-2-oxo-ethyl]benzamide]: on BRM, the “BRM Max % Inhibition” value is over 95% and the IC50 was under 0.1 µM. In addition, on BRG-1, the half-inhibitory concentration (IC50) lay within 0.1 to 1 µM and the Emax is over 80%.

As for `CC(=O)NCc1cccc(-c2cccc(-c3csc(NC(=O)CNC(=O)c4cccc(S(=O)(=O)C(C)C)c4)n3)c2)c1` [Compound 111, N-(2-((4-(3′-(acetamidomethyl)-[1,1′-biphenyl]-3-yl)thiazol-2-yl)amino)-2-oxoethyl)-3-(isopropylsulfonyl) benzamide], on BRM, the “BRM Max % Inhibition” value is listed as over 90% and the half-inhibitory concentration (IC50) lay in the range of 0.1 to 1 µM. Besides, on BRG-1, the IC50 is over 5 µM and the Emax is over 40%.

For the compound `CC(C(F)(F)F)S(=O)(=O)c1cccc(C(=O)NCC(=O)Nc2nc(-c3cccc(-c4ccncc4)c3)cs2)c1` (stereo not shown) [Compound 112], on BRM, the “BRM Max % Inhibition” value is over 80% and the concentration for half-maximal inhibition (IC50) was 0.1 to 1 µM. Moreover, on BRG-1, the IC50 was 0.1 to 1 µM and the Emax is over 50%.

For `CC(C(F)(F)F)S(=O)(=O)c1cccc(C(=O)NCC(=O)Nc2nc(-c3cccc(-c4ccncc4)c3)cs2)c1` (stereo not shown) [Compound 113, N-(2-oxo-2-((4-(3-(pyridin-4-yl)phenyl)thiazol-2-yl)amino)ethyl)-3-((1,1,1-trifluoropropan-2-yl)sulfonyl)benzamide], on BRM, the “BRM Max % Inhibition” value is listed as over 80% and the half-inhibitory concentration (IC50) fell in the range of 0.1 to 1 µM. At BRG-1, the “BRG1 Max % Inhibition” value was over 50% and the IC50 was in the range of 0.1 to 1 µM.

`Cc1cc(-c2cccc(-c3csc(NC(=O)CNC(=O)c4cccc(S(=O)(=O)C(C)CN)c4)n3)c2)cc(C)n1` (stereo not shown) [Compound 114, 3-((1-aminopropan-2-yl)sulfonyl)-N-(2-((4-(3-(2,6-dimethylpyridin-4-yl)phenyl)thiazol-2-yl)amino)-2-oxoethyl)benzamide]: on BRM, the “BRM Max % Inhibition” value is given as over 90% and the IC50 was under 0.1 µM. For the same compound, at BRG-1, the half-maximal inhibitory concentration (IC50) was 0.1 to 1 µM and the Emax was over 95%.

Consider `C[C@@H](CO)S(=O)(=O)c1cccc(C(=O)NCC(=O)Nc2nc(-c3cccc(-c4ccncc4)c3)cs2)c1` [Compound 115, (S)-3-((1-hydroxypropan-2-yl)sulfonyl)-N-(2-oxo-2-((4-(3-(pyridin-4-yl)phenyl)thiazol-2-yl)amino)ethyl)benzamide], for which, at BRM, the “BRM Max % Inhibition” value is listed as over 95% and the half-maximal inhibitory concentration (IC50) was under 0.1 µM. On BRG-1, the half-inhibitory concentration (IC50) was under 0.1 µM and the Emax is over 95%.

Take `C[C@H](CO)S(=O)(=O)c1cccc(C(=O)NCC(=O)Nc2nc(-c3cccc(-c4ccncc4)c3)cs2)c1` [Compound 116, (R)-3-((1-hydroxypropan-2-yl)sulfonyl)-N-(2-oxo-2-((4-(3-(pyridin-4-yl)phenyl)thiazol-2-yl)amino)ethyl)benzamide]: at BRM, the “BRM Max % Inhibition” value is over 80% and the 50% inhibitory concentration (IC50) lay in the range of 0.1 to 1 µM. In addition, at BRG-1, the IC50 was 1 to 5 µM and the Emax was over 40%.

As to `Cc1cc(-c2cccc(-c3csc(NC(=O)CNC(=O)c4cccc(S(=O)(=O)C(C)C)c4)n3)n2)ncn1` [Compound 117, 3-isopropylsulfonyl-N-[2-[[4-[6-(6-methylpyrimidin-4-yl)-2-pyridyl]thiazol-2-yl]amino]-2-oxo-ethyl]benzamide], at BRM, the “BRM Max % Inhibition” value is on record as over 95% and the concentration for half-maximal inhibition (IC50) was under 0.1 µM. At BRG-1, the half-inhibitory concentration (IC50) is 0.1 to 1 µM and the Emax is over 80%.

`CC(C)S(=O)(=O)c1cccc(C(=O)NCC(=O)Nc2nc(-c3cccc(-c4cccc(C#N)n4)n3)cs2)c1` [Compound 118, N-[2-[[4-[6-(6-cyano-2-pyridyl)-2-pyridyl]thiazol-2-yl]amino]-2-oxo-ethyl]-3-isopropylsulfonyl-benzamide]: at BRM, the “BRM Max % Inhibition” value is over 70% and the concentration for half-maximal inhibition (IC50) was 0.1 to 1 µM. Moreover, at BRG-1, the concentration for half-maximal inhibition (IC50) is over 5 µM and the Emax is under 30%.

For the compound `COc1nccc(-c2cccc(-c3csc(NC(=O)CNC(=O)c4cccc(S(=O)(=O)C(C)C)c4)n3)n2)n1` [Compound 119, 3-isopropylsulfonyl-N-[2-[[4-[6-(2-methoxypyrimidin-4-yl)-2-pyridyl]thiazol-2-yl]amino]-2-oxo-ethyl]benzamide], at BRM, the “BRM Max % Inhibition” value is recorded as over 95% and the half-maximal inhibitory concentration (IC50) is under 0.1 µM. At BRG-1, the half-inhibitory concentration (IC50) was 0.1 to 1 µM and the Emax was over 80%.

Consider `Cc1nccc(-c2cccc(-c3csc(NC(=O)CNC(=O)c4cccc(S(=O)(=O)C(C)C)c4)n3)n2)n1` [Compound 121], for which, on BRM, the “BRM Max % Inhibition” value is reported as over 95% and the half-maximal inhibitory concentration (IC50) lay in the range of 0.1 to 1 µM. Further, at BRG-1, the concentration for half-maximal inhibition (IC50) fell in the range of 1 to 5 µM and the Emax was over 80%.

As to `COc1nc(C)cc(-c2cccc(-c3csc(NC(=O)CNC(=O)c4cccc(S(=O)(=O)C(C)C)c4)n3)c2)n1` [Compound 122, 3-isopropylsulfonyl-N-[2-[[4-[3-(2-methoxy-6-methyl-pyrimidin-4-yl)phenyl]thiazol-2-yl]amino]-2-oxoethyl]benzamide], on BRM, the “BRM Max % Inhibition” value is listed as over 95% and the 50% inhibitory concentration (IC50) is under 0.1 µM. Besides, at BRG-1, the IC50 was under 0.1 µM and the Emax is over 95%.

As for `COc1cc(-c2cccc(-c3csc(NC(=O)CNC(=O)c4cccc(S(=O)(=O)C(C)C)c4)n3)c2)nc(C)n1` [Compound 123, 3-isopropylsulfonyl-N-[2-[[4-[3-(6-methoxy-2-methyl-pyrimidin-4-yl)phenyl]thiazol-2-yl]amino]-2-oxo-ethyl]benzamide], at BRM, the “BRM Max % Inhibition” value is reported as over 95% and the concentration for half-maximal inhibition (IC50) was under 0.1 µM. Further, on BRG-1, the concentration for half-maximal inhibition (IC50) lay within 0.1 to 1 µM and the Emax is over 80%.

Turning to `CC(C)S(=O)(=O)c1cccc(C(=O)NCC(=O)Nc2nc(-c3cccc(-c4ccnc(CN)c4)c3)cs2)c1` [Compound 124, N-[2-[[4-[3-[2-(aminomethyl)-4-pyridyl]phenyl]thiazol-2-yl]amino]-2-oxo-ethyl]-3-isopropylsulfonyl-benzamide], at BRM, the “BRM Max % Inhibition” value is on record as over 90% and the concentration for half-maximal inhibition (IC50) was in the range of 0.1 to 1 µM. At BRG-1, the IC50 lay in the range of 1 to 5 µM and the Emax is over 70%.

For `Cc1ccc(C(=O)NCC(=O)Nc2nc(-c3cccc(N4C[C@@H](C)O[C@@H](C)C4)c3)cs2)cc1S(=O)(=O)C(C)C` [Compound 125, N-(2-((4-(3-((cis)-2,6-dimethylmorpholino)phenyl)thiazol-2-yl)amino)-2-oxoethyl)-3-(isopropylsulfonyl)-4-methylbenzamide], at BRM, the “BRM Max % Inhibition” value was over 95% and the concentration for half-maximal inhibition (IC50) is under 0.1 µM. Also, at BRG-1, the 50% inhibitory concentration (IC50) fell in the range of 0.1 to 1 µM and the Emax is over 80%.

As for `CC(C)S(=O)(=O)c1cccc(C(=O)NCC(=O)Nc2nc(-c3cccc(N4CCOCC4)c3)cs2)c1` [Compound 126, 3-isopropylsulfonyl-N-[2-[[4-(3-morpholinophenyl)thiazol-2-yl]amino]-2-oxoethyl]benzamide], at BRM, the “BRM Max % Inhibition” value is over 80% and the half-inhibitory concentration (IC50) was in the range of 0.1 to 1 µM. In addition, on BRG-1, the IC50 is 1 to 5 µM and the Emax is over 60%.
